Experimental data from article PMC8016998, “Identification of potential therapeutic antimicrobial peptides against Acinetobacter baumannii in a mouse model of pneumonia” (Scientific Reports, 2021).
No end group written: not given here.

How the values were obtained:
[1] = tested on: Acinetobacter baumannii 17,978; type: cell-based; conditions: 17,978, 24 h;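 note: CLSI broth microdilution in 96-well polypropylene plates, MBC taken as lowest concentration giving no growth when clear wells were subcultured on LB agar for 24 h at 37 °C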
[2] = tested on: Acinetobacter baumannii 19,606; type: cell-based; conditions: 19,606, 24 h
MDRAB clinical strains = type: cell-based, Acinetobacter baumannii; conditions: 24 h
Method: (§1) MBC were determined by extending the MIC procedure in sterilized 96-well polypropylene microtiter plates according to the broth microdilution guidelines of the Clinical and Laboratory Standards Institute with some modification[47]. […] In addition, 10 µL was drawn from each well with no visible turbidity onto LB agar plates and incubated for 24 h at 37 °C. The lowest concentration showing no visible growth on agar subculture was used as the MBC value. All experiments were performed in triplicate.

[3] = tested on: MDRAB clinical strain J49; type: cell-based, Acinetobacter baumannii; conditions: 24 h
Method: as §1

MDRAB clinical strain K2 = type: cell-based, Acinetobacter baumannii; conditions: 24 h
[4] = tested on: MDRAB clinical strain Y92; type: cell-based, Acinetobacter baumannii; conditions: 24 h
Method: as §1

[5] = tested on: MDRAB clinical strain W11; type: cell-based, Acinetobacter baumannii; conditions: 24 h
[6] = tested on: MDRAB clinical strain U80; type: cell-based, Acinetobacter baumannii; conditions: 24 h
Method: as §1

[7] = tested on: MDRAB clinical strain U95; type: cell-based, Acinetobacter baumannii; conditions: 24 h
Method: as §1

[8] = tested on: MDRAB clinical strain O59; type: cell-based, Acinetobacter baumannii; conditions: 24 h
[9] = tested on: MDRAB clinical strain D29; type: cell-based, Acinetobacter baumannii; conditions: 24 h
Method: as §1

[10] = tested on: MDRAB clinical strain L87; type: cell-based, Acinetobacter baumannii; conditions: 24 h
Method: as §1

[11] = tested on: MDRAB clinical strain AO80; type: cell-based, Acinetobacter baumannii; conditions: 24 h
[12] = tested on: MDRAB clinical strain AS40; type: cell-based, Acinetobacter baumannii; conditions: 24 h
Method: as §1

[13] = tested on: MDRAB clinical strain AK29; type: cell-based, Acinetobacter baumannii; conditions: 24 h
[14] = tested on: MDRAB clinical strain AK61; type: cell-based, Acinetobacter baumannii; conditions: 24 h
[15] = tested on: MDRAB clinical strain AE5; type: cell-based, Acinetobacter baumannii; conditions: 24 h
Method: as §1

[16] = tested on: MDRAB clinical strain AE6; type: cell-based, Acinetobacter baumannii; conditions: 24 h
[17] = tested on: MDRAB clinical strain AF11; type: cell-based, Acinetobacter baumannii; conditions: 24 h
[18] = tested on: MDRAB clinical strain AF12; type: cell-based, Acinetobacter baumannii; conditions: 24 h
Method: as §1

[19] = tested on: MDRAB clinical strain AF93; type: cell-based, Acinetobacter baumannii; conditions: 24 h
Method: as §1

[20] = tested on: MDRAB clinical strain AG51; type: cell-based, Acinetobacter baumannii; conditions: 24 h
Method: as §1

[21] = tested on: MDRAB clinical strain AN10; type: cell-based, Acinetobacter baumannii; conditions: 24 h
[22] = tested on: MDRAB clinical strain AL87; type: cell-based, Acinetobacter baumannii; conditions: 24 h
Method: as §1

[23] = tested on: MDRAB clinical strain AZ93; type: cell-based, Acinetobacter baumannii; conditions: 24 h
Method: as §1

## GWKKWFNRAKKVGKTVGGLAVDHYL-NH2 [NRC12]
[1]
  MBC: 16 µg/mL
  MIC: 16 µg/mL
[2]
  MBC: 16 µg/mL
  MIC: 16 µg/mL
MDRAB clinical strains
  MBC: 8 to 32 µg/mL
  MIC: 8 to 32 µg/mL
[3]
  MBC: 16 µg/mL
  MIC: 16 µg/mL
MDRAB clinical strain K2
  MBC: 32 µg/mL
  MIC: 16 µg/mL
[4]
  MBC: 16 µg/mL
  MIC: 16 µg/mL
[5]
  MBC: 16 µg/mL
  MIC: 16 µg/mL
[6]
  MBC: 32 µg/mL
  MIC: 32 µg/mL
[7]
  MBC: 32 µg/mL
  MIC: 32 µg/mL
[8]
  MBC: 32 µg/mL
  MIC: 32 µg/mL
[9]
  MBC: 16 µg/mL
  MIC: 16 µg/mL
[10]
  MBC: 32 µg/mL
  MIC: 32 µg/mL
[11]
  MBC: 32 µg/mL
  MIC: 32 µg/mL
[12]
  MBC: 32 µg/mL
  MIC: 32 µg/mL
[13]
  MBC: 8 µg/mL
  MIC: 8 µg/mL
[14]
  MBC: 32 µg/mL
  MIC: 32 µg/mL
[15]
  MBC: 16 µg/mL
  MIC: 16 µg/mL
[16]
  MBC: 16 µg/mL
  MIC: 16 µg/mL
[17]
  MBC: 16 µg/mL
  MIC: 16 µg/mL
[18]
  MBC: 16 µg/mL
  MIC: 8 µg/mL
[19]
  MBC: 16 µg/mL
  MIC: 16 µg/mL
[20]
  MBC: 8 µg/mL
  MIC: 8 µg/mL
[21]
  MBC: 8 µg/mL
  MIC: 8 µg/mL
[22]
  MBC: 8 µg/mL
  MIC: 8 µg/mL
[23]
  MBC: 32 µg/mL
  MIC: 32 µg/mL
